# Biological target: T1, HDAC6 (Homo sapiens, UniProt Q9UBN7)
# T1 sequence (Q9UBN7 1-1215): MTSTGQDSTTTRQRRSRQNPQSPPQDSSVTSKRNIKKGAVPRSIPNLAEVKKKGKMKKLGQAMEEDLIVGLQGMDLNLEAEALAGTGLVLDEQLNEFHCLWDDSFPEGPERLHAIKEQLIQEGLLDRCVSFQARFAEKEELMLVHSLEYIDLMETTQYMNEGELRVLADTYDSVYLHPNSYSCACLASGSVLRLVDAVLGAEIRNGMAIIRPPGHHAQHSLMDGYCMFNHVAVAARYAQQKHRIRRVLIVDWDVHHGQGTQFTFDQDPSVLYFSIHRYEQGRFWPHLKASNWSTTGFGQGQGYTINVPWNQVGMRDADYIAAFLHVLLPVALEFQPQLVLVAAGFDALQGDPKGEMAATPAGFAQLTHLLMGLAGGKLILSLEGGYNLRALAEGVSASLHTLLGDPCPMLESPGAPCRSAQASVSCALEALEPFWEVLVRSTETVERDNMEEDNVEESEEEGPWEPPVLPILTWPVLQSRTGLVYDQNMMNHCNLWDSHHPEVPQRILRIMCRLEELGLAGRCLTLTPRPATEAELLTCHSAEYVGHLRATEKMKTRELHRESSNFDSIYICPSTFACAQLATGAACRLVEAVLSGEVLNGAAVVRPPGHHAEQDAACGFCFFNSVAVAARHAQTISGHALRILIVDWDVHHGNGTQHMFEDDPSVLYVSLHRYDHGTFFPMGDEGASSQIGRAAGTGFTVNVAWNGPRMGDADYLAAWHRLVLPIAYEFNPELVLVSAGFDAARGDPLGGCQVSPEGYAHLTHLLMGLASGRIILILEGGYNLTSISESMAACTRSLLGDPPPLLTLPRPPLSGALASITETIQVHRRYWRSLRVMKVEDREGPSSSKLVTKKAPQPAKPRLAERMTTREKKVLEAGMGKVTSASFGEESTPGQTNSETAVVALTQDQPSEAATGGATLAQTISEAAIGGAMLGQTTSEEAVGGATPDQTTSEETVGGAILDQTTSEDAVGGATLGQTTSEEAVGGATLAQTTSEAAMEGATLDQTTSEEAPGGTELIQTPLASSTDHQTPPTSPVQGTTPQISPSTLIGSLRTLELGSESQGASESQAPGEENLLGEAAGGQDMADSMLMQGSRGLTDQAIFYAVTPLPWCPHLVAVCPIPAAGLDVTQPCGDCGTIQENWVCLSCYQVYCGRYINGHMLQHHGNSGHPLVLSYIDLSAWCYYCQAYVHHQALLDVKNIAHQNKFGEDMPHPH
# Test: LCMS characterization of enzymatic deacetylation by HDAC6
# Type: biochemical
# Conditions: 5 μM probe, 12 hours at 37° C.
# Description: The enzymatic cleavage of HP-1 and HP-2 was analyzed by performing LCMS assays with HeLa nuclear extract (AnaSpec), HeLa whole cell lysate (Santa Cruz Inc.), and the following purified HDAC isoforms: 1, 2, 3, 6 and 8 (HDAC1, 3 and 8 from Cayman Chemicals and HDAC2 and 6 provided by Dr. Stephen Haggarty). Solutions containing (i) vehicle with DMSO in HDAC buffer, (ii) 5 μM probe in HDAC buffer, (iii) 5 μM probe and HDAC enzyme/HeLa nuclear extract/HeLa whole cell lysate in HDAC buffer, or (iv) 5 μM probe and HDAC enzyme/HeLa nuclear extract/HeLa whole cell lysate pre-incubated with 10 μM SAHA (Provided by Dr. Stephen Haggarty) in HDAC buffer were incubated for 12 hours at 37° C. Following incubation, a 20 μL aliquot of supernatant from each sample was analyzed by LCMS. […] For HP-1, the (M+H)^+ ion for the corresponding aldehyde (8, DHP-1) was detected, which formed following reaction of the initial imine deacetylation product with water. […] The peak area for each detected compound was measured to determine the % deacetylation of each probe. All assay samples were analyzed in triplicate. […]
# LCMS characterization of HDAC enzymatic action on HP-1 and HP-2. […] Following incubation, an aliquot of supernatant from each sample was analyzed by LCMS. […] The peak area for each detected compound was measured to determine the % deacetylation of each probe (full experimental details in Example 1).
structure (smiles),measurement,setting,value
CC(=O)NC=CCCCCNC(=O)CCCCCNc1ccc([N+](=O)[O-])c2nonc12 [HP-1],% HP-1 to DHP-1,"HDAC6, +SAHA (10 μM)",0%
same,% HP-1 to DHP-1,"HDAC6, −SAHA",0%

# Reference: patent US20160138077A1, “MONITORING AND ASSESSING DEACETYLASE ENZYME ACTIVITY” (THE GENERAL HOSPITAL CORPORATION, priority 2013, published 2016)
